This passage reports Ki results from patent US11780849B2, “Imino sulfanone inhibitors of ENPP1” (Volastra Therapeutics, Inc., priority 2020, dated 2023).

Test [1] deals with ENPP-1 ECD (Homo sapiens (Human), UniProt P22413). Briefly: Assay 2: inhibition of ENPP1 hydrolysis of 2′,3′-cGAMP (AMP-Glo, […] enzyme). The note with it: inhibition of ENPP1 hydrolysis of 2′,3′-cGAMP, no unit in Table 18 (Table 17 legend for this assay uses nM).
Protocol: Assay 2: Compared to the conditions in Assay 1, this assay has a larger dynamic range and ensures the system is under steady-state conditions by reducing the enzyme concentration in the assay.
Test compounds were plated in a 3× dilution scheme in a 384 well plate. […] AMP Detection solution (10 μL) was added to each well, the plate centrifuged and incubated for 60 min.
The target in test [2] is ENPP1 on MDA-MB-231 cells (Homo sapiens (Human), UniProt P22413). Briefly: Assay 3: inhibition of ENPP1 hydrolysis of AMP p-nitrophenyl ester on MDA-MB-231 cells.
[3] abbreviates: read-out: Assay 3 (KI, app), apparent KI from IC50 via Cheng/Prusoff, pNP-AMP […], MDA-MB-231 cells, pH 7.4, 37° C., 3 h, unit inferred.

Where two headings read alike, the source gives them in different places. Bounds are passed on as bounds.

Sequence of ENPP-1 ECD (P22413 98-925): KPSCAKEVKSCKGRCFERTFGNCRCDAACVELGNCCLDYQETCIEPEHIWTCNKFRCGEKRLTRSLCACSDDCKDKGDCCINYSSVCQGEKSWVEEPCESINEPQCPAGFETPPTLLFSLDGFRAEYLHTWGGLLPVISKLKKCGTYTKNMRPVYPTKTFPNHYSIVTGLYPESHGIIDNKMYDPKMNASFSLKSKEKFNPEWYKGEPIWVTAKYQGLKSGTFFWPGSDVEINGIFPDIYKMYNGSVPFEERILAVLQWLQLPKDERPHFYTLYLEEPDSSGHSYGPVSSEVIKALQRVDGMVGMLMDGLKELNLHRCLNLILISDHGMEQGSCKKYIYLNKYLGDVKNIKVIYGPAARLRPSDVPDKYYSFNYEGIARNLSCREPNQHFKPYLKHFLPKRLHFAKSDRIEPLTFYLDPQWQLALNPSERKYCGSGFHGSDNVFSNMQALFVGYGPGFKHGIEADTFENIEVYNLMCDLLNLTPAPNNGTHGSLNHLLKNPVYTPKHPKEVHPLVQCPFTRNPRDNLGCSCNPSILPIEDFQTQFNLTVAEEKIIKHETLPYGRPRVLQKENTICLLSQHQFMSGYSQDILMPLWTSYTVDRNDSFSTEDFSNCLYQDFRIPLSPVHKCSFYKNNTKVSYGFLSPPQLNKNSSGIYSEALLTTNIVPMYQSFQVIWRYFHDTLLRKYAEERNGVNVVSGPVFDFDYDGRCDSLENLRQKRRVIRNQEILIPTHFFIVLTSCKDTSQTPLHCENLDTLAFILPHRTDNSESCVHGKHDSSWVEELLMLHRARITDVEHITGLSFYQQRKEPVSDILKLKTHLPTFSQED
Sequence of ENPP1 on MDA-MB-231 cells (P22413 whole entry): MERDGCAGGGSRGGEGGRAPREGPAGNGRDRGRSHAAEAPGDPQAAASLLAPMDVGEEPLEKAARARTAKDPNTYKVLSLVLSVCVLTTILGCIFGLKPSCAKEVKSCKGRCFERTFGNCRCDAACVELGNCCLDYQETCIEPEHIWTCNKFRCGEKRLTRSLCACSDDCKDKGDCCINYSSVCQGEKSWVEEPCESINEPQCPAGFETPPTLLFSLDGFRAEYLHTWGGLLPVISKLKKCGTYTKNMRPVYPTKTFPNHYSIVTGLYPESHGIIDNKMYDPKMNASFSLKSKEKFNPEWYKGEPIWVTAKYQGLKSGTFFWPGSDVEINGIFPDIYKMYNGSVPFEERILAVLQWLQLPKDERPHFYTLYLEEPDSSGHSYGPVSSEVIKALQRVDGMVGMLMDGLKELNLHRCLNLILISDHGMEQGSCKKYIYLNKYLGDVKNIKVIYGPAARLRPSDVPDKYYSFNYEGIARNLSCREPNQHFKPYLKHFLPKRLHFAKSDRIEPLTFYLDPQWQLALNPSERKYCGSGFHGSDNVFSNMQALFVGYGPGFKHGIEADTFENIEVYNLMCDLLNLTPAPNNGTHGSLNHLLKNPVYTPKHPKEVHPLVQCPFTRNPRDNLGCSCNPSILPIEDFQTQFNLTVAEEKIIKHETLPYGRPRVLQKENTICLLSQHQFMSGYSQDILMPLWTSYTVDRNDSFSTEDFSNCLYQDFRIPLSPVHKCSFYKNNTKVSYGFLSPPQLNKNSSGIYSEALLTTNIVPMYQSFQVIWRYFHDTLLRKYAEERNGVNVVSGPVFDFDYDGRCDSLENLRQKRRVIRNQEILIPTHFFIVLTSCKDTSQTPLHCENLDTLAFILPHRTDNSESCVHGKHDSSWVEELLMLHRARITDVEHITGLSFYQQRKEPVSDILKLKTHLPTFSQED

Turning to `CS(=N)(=O)CC1CCN(c2c(C#N)cnc3c(OCF)cccc23)CC1` (centres unmarked) [Compound 200, 8-(fluoromethoxy)-4-(4-{[imino(methyl)oxo-λ^6-sulfanyl]methyl}piperidin-1-yl)quinoline-3-carbonitrile], the Ki stood at 0.019 nM in test [1] (Assay 2 (KI)) and 0.41 nM in test [2].
In the same order, the values of `COc1cccc2c(N3CCC(CS(C)(=N)=O)CC3)c(C#N)c(C)nc12` (centres unmarked) [Compound 201, 4-(4-{[imino(methyl)oxo-λ^6-sulfanyl]methyl}piperidin-1-yl)-8-methoxy-2-methylquinoline-3-carbonitrile] are 0.69 nM and 12 nM.
Turning to `COc1cc2nccc(N3CCC4(CC3)CCN(S(C)(=N)=O)C4)c2cc1F` (centres unmarked) [Compound 205, [8-(6-fluoro-7-methoxyquinolin-4-yl)-2,8-diazaspiro[4.5]decan-2-yl](imino)methyl-λ^6-sulfanone], the Ki in test [1] (Assay 2 (KI)) came to 0.032 nM; in test [2], 2.2 nM.
For `COc1cc2nccc(N3CCC4(CC3)CCN([S@@](C)(=N)=O)C4)c2cc1F` [Compound 205b], the figures for the Ki in test [1] (read-out: Assay 2 (KI)) and in test [2] (setting [3]) were 0.0057 nM and 0.12 nM, respectively.
Regarding `COc1cc2ncnc(N3CCC4(CCN(S(C)(=N)=O)CC4)C3)c2cc1OC` (centres unmarked) [Compound 207, [2-(6,7-dimethoxyquinazolin-4-yl)-2,8-diazaspiro[4.5]decan-8-yl](imino)methyl-λ^6-sulfanone], the Ki in test [1] (Assay 2 (KI)) came to 0.037 nM; in test [2], 3.3 nM.
As for `COc1cc2nccc(N3CCC4(CC3)CCN(S(C)(=N)=O)C4)c2cc1OC` (centres unmarked) [Compound 208, [8-(6,7-dimethoxyquinolin-4-yl)-2,8-diazaspiro[4.5]decan-2-yl](imino)methyl-λ^6-sulfanone], the Ki came out at 0.021 nM in test [1] (Assay 2 (KI)) and 0.21 nM in test [2].
For `COc1cc2nccc(N3CCC4(CC3)CCN([S@@](C)(=N)=O)C4)c2cc1OC` [Compound 208a], the Ki in test [1] (read-out: Assay 2 (KI)) amounted to 1.1 nM; in test [2] (setting [3]), 55 nM.
In the same order, the values of `COc1cc2nccc(N3CCC4(CC3)CCN([S@](C)(=N)=O)C4)c2cc1OC` [Compound 208b] are 0.0078 nM and 0.16 nM.
As to `COc1cc2ncc(C#N)c(N3CCC4(CC3)CCN(S(C)(=N)=O)C4)c2cc1F` (centres unmarked) [Compound 210, 6-fluoro-4-{2-[imino(methyl)oxo-λ^6-sulfanyl]-2,8-diazaspiro[4.5]decan-8-yl}-7-methoxyquinoline-3-carbonitrile], the Ki in test [1] (Assay 2 (KI)) came to 0.024 nM; in test [2] it was 2.5 nM.
For `COc1cc2nncc(N3CCC4(CC3)CCN(S(C)(=N)=O)C4)c2cc1OC` (centres unmarked) [Compound 211, [8-(6,7-dimethoxycinnolin-4-yl)-2,8-diazaspiro[4.5]decan-2-yl](imino)methyl-λ^6-sulfanone] the same measures were 0.022 nM and 0.97 nM.
In the case of `COc1cc2nncc(N3CCC4(CC3)CCN([S@](C)(=N)=O)C4)c2cc1OC` [Compound 211a], the Ki was determined as 0.023 nM in test [1] (read-out: Assay 2 (KI)) and 2.2 nM in test [2] (setting [3]).
For the molecule `COc1cc2ncnc(N3CCC4(CC3)CCN(S(C)(=N)=O)C4)c2cc1Cl` (centres unmarked) [Compound 212, [8-(6-chloro-7-methoxyquinazolin-4-yl)-2,8-diazaspiro[4.5]decan-2-yl](imino)methyl-λ^6-sulfanone], the Ki came to 0.047 nM in test [1] (Assay 2 (KI)) and 4.4 nM in test [2].
For `COc1cc2nc(C)nc(N3CCC4(CC3)CCN(S(C)(=N)=O)C4)c2cc1OC` (centres unmarked) [Compound 213, [8-(6,7-dimethoxy-2-methylquinazolin-4-yl)-2,8-diazaspiro[4.5]decan-2-yl](imino)methyl-λ^6-sulfanone] the same measures were 0.058 nM and 2.8 nM.
Take `COc1cccc2c(N3CC4(CCN(S(C)(=N)=O)C4)C3)ncnc12` (centres unmarked) [Compound 217, imino[2-(8-methoxyquinazolin-4-yl)-2,6-diazaspiro[3.4]octan-6-yl]methyl-λ^6-sulfanone]: the Ki is 0.29 nM in test [1] (Assay 2 (KI)) and 8 nM in test [2].
For `COc1cc2nccc(N3CCC4(CC3)CCN(S(=N)(=O)C3CC3)C4)c2cc1F` (centres unmarked) [Compound 218, {cyclopropyl[8-(6-fluoro-7-methoxyquinolin-4-yl)-2,8-diazaspiro[4.5]decan-2-yl]imino-λ^6-sulfanyl}one] the same measures were 0.022 nM and 0.69 nM.
For the molecule `COc1cc2nccc(N3CCC4(CC3)CCN([S@@](=N)(=O)C3CC3)C4)c2cc1F` [Compound 218a], the results for the Ki in test [1] (read-out: Assay 2 (KI)) and in test [2] (setting [3]) were 0.0078 nM and 0.29 nM, respectively.
For `COc1cc2nncc(N3CCC4(CC3)CCN([S@](C)(=N)=O)C4)c2cc1Cl` [Compound 219a] the same measures were 0.071 nM and 1.2 nM.
On to `COc1cc2nnc(C)c(N3CCC4(CC3)CCN(S(C)(=N)=O)C4)c2cc1Cl` (centres unmarked) [Compound 220, [8-(6-chloro-7-methoxy-3-methylcinnolin-4-yl)-2,8-diazaspiro[4.5]decan-2-yl](imino)methyl-λ^6-sulfanone], for which the Ki in test [1] (Assay 2 (KI)) came to 0.25 nM; in test [2] it was 11 nM.
In the same order, the values of `CCS(=N)(=O)N1CCC2(CCN(c3ncnc4cc(OC)c(F)cc34)CC2)C1` (centres unmarked) [Compound 221, ethyl[8-(6-fluoro-7-methoxyquinazolin-4-yl)-2,8-diazaspiro[4.5]decan-2-yl]imino-λ^6-sulfanone] are 0.12 nM and 4.6 nM.
In the case of `COc1cccc2c(N3CC4(CCN(S(C)(=N)=O)C4)C3)c(C#N)cnc12` (centres unmarked) [Compound 222, 4-{6-[imino(methyl)oxo-λ^6-sulfanyl]-2,6-diazaspiro[3.4]octan-2-yl}-8-methoxyquinoline-3-carbonitrile], the Ki in test [1] (Assay 2 (KI)) stood at 0.07 nM; in test [2] it was 1.1 nM.
Consider `COc1cccc2c(N3CC4(CCN([S@@](C)(=N)=O)C4)C3)c(C#N)cnc12` [Compound 222a], for which the figures for the Ki in test [1] (read-out: Assay 2 (KI)) and in test [2] (setting [3]) were 0.034 nM and 1.2 nM, respectively.
`COc1cccc2c(N3CCC4(C3)CN(S(C)(=N)=O)C4)ncnc12` (centres unmarked) [Compound 223, imino[6-(8-methoxyquinazolin-4-yl)-2,6-diazaspiro[3.4]octan-2-yl]methyl-λ^6-sulfanone]: the Ki in test [1] (Assay 2 (KI)) is 0.11 nM; in test [2], 3.2 nM.
With `COc1cccc2c(N3CCC4(C3)CN([S@](C)(=N)=O)C4)ncnc12` [Compound 223a], the values for the Ki in test [1] (read-out: Assay 2 (KI)) and in test [2] (setting [3]) were 0.047 nM and 3.1 nM, respectively.
For `COc1cccc2c(N3CCC4(C3)CN([S@@](C)(=N)=O)C4)ncnc12` [Compound 223b] the same measures were 19 nM and 460 nM.
Consider `COc1cc2ncnc(N3CCC4(CC3)CCN(S(C)(=N)=O)C4)c2cc1F` (centres unmarked) [Compound 224, [8-(6-fluoro-7-methoxyquinazolin-4-yl)-2,8-diazaspiro[4.5]decan-2-yl](imino)methyl-λ^6-sulfanone], for which the values for the Ki in test [1] (Assay 2 (KI)) and in test [2] were 0.019 nM and 1.1 nM, respectively.
With `COc1cc2nncc(N3CCC4(CC3)CCN(S(=N)(=O)C3CC3)C4)c2cc1Cl` (centres unmarked) [Compound 225, {[8-(6-chloro-7-methoxycinnolin-4-yl)-2,8-diazaspiro[4.5]decan-2-yl](cyclopropyl)imino-λ^6-sulfanyl}one], the Ki was 0.096 nM in test [1] (Assay 2 (KI)) and 6.8 nM in test [2].
For `COc1cc2nccc(N3CCC4(CC3)CCN(S(C)(=N)=O)C4)c2cc1C#N` (centres unmarked) [Compound 226, 4-{2-[imino(methyl)oxo-λ^6-sulfanyl]-2,8-diazaspiro[4.5]decan-8-yl}-7-methoxyquinoline-6-carbonitrile] the same measures were 1.2 nM and 43 nM.
For `COc1cc2ncc(F)c(N3CCC4(CC3)CCN(S(C)(=N)=O)C4)c2cc1OC` (centres unmarked) [Compound 227, [8-(3-fluoro-6,7-dimethoxyquinolin-4-yl)-2,8-diazaspiro[4.5]decan-2-yl](imino)methyl-λ^6-sulfanone] the same measures were 0.018 nM and 0.51 nM.
For `COc1cc2nnc(C)c(N3CCC4(CC3)CCN(S(C)(=N)=O)C4)c2cc1OC` (centres unmarked) [Compound 228, [8-(6,7-dimethoxy-3-methylcinnolin-4-yl)-2,8-diazaspiro[4.5]decan-2-yl](imino)methyl-λ^6-sulfanone] the same measures were 0.25 nM and 8.7 nM.
With `COc1cc2nccc(OC[C@@H]3CCN([S@](C)(=N)=O)C3)c2cc1F` [Compound 229b], the figures for the Ki in test [1] (read-out: Assay 2 (KI)) and in test [2] (setting [3]) were 0.37 nM and 3.6 nM, respectively.
As to `COc1cc2nccc(OC[C@H]3CCN([S@@](C)(=N)=O)C3)c2cc1F` [Compound 230b], the Ki is 0.38 nM in test [1] (read-out: Assay 2 (KI)) and 6.6 nM in test [2] (setting [3]).
For `COc1ccc2c(COc3ccc(S(C)(=N)=O)cc3)ccnc2c1` (centres unmarked) [Compound 231, imino({4-[(7-methoxyquinolin-4-yl)methoxy]phenyl})methyl-λ^6-sulfanone], the results for the Ki in test [1] (Assay 2 (KI)) and in test [2] were 1.2 nM and 56 nM, respectively.
For `COc1cccc2c(N3CCC4(CC3)CN(S(C)(=N)=O)C4)ncnc12` (centres unmarked) [Compound 236, imino[7-(8-methoxyquinazolin-4-yl)-2,7-diazaspiro[3.5]nonan-2-yl]methyl-λ^6-sulfanone] the same measures were 86 nM and above 580 nM.
For the molecule `COc1cc2ncnc(N3CC4(CC(CS(C)(=N)=O)C4)C3)c2cc1OC` (centres unmarked) [Compound 237], the values for the Ki in test [1] (Assay 2 (KI)) and in test [2] were 0.028 nM and 1.2 nM, respectively.
Consider `COc1cc2ncnc(N3CC4(CC(C[S@](C)(=N)=O)C4)C3)c2cc1OC` [Compound 237b], for which the Ki in test [1] (read-out: Assay 2 (KI)) was found to be 0.005 nM; in test [2] (setting [3]), 0.17 nM.
In the same order, the values of `COc1cccc2c(N3CC[C@H](C[S@@](C)(=N)=O)C3)ncnc12` [Compound 238a] are 66 nM and 260 nM.
For `COc1cccc2c(N3CC[C@@H](CS(C)(=N)=O)C3)ncnc12` (stereo partly drawn) [Compound 239, imino({[(3R)-1-(8-methoxyquinazolin-4-yl)pyrrolidin-3-yl]methyl})methyl-λ^6-sulfanone], the Ki in test [1] (Assay 2 (KI)) was found to be 0.81 nM; in test [2] it was 15 nM.
